This passage reports inhibition and cell count results from PubChem BioAssay AID1013 (Columbia University Molecular Screening Center, 2008).

The source made the active and inactive calls. No rule for the calls is given here.

As a reminder, the inhibition is the change of the read-out against control, counted positive when it falls.

The nature of one assay: inhibitors of TNFa-induced VCAM1 expression, confirmation, imaging, TNFa stimulus, retest and dose response (AID 1013).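 As to cell count: compound on cells 1 h before TNFa then 24 h more.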 As to conditions: TNFa-stimulated cells, VCAM1 expression imaging; at 2 µM; stronger effect = higher value.
In the case of `COc1cccc(CSc2nc3ccccc3cc2C=O)c1`, the inhibition is 43.3% (inactive).

For `COc1cc(/C=N/NC(=O)Nc2ccccc2)ccc1OCCOc1ccccc1C`, the inhibition is 33.1% (inactive).

Regarding `COc1ccccc1N(C)S(=O)(=O)c1ccc(C(=O)NCC(C)C)cc1`, the inhibition is -6.5% (inactive).

Regarding `Cc1nc(SCc2ccc(Br)cc2)[nH]c(=O)c1C`, the inhibition was 5.1% (inactive).

`Cc1nc([N+](=O)[O-])c(Br)n1CC(=O)c1ccc(Br)cc1`: the inhibition is 27% (inactive).

With `CC(=O)Nc1ccc(S(=O)(=O)n2cnc(C)c2)cc1`, the inhibition was -13.1% (inactive).

As to `Cc1c(Cl)cccc1-n1ccnc1SCC(=O)O`, the inhibition was -7.8% (inactive).

For `COc1cccc(C(=O)Nc2cccc(-c3nc4ncccc4o3)c2C)c1`, the inhibition was 2.2% (inactive).

Regarding `COC(=O)c1[nH]c2cc(OC)ccc2c1NC(=O)CN1CCC(C(N)=O)(N2CCCCC2)CC1`, the inhibition is -3.9% (inactive).

As to `O=C(NC1CC1)c1ccc(S(=O)(=O)NCC2CCCCC2)cc1`, the inhibition was 7.4% (inactive).

With `Cc1cnc(NC(=O)C2CCCC2)s1`, the inhibition was 14.1% (inactive).

Consider `O=c1c(-c2ccc(Br)cc2)coc2c(CN3CCOCC3)c(O)ccc12`, for which the inhibition was -12.4% (inactive).

As to `Cn1c(CNc2ccccc2O)nc2ccccc21`, the inhibition is 11.9% (inactive).

As to `COc1ccc(S(=O)(=O)Nc2nc3n(n2)C(c2ccc(Cl)cc2)CC(=O)N3)cc1` (centres undefined), the inhibition was -17.4% (inactive).

`O=C(CN1CCC(c2nc3ccccc3s2)CC1)NCc1cccs1`: the inhibition is -3.1% (inactive).

For the compound `COc1ccccc1-c1cn(S(=O)(=O)c2ccc(C)cc2)nc1N`, the inhibition is 2.2% (inactive).

With `O=C(N/N=C/c1ccncc1)c1ccccc1`, the inhibition was 5.8% (inactive).

`COc1ccc(-c2cc(C(F)(F)F)nc(S(=O)(=O)CCC(=O)N3CCOCC3)n2)cc1`: the inhibition was 20.8% (inactive).

Consider `COc1ccc(S(=O)(=O)N2CCCC2C(=O)Nc2ccc(C)cc2)cc1` (centres undefined), for which the inhibition was -4% (inactive).

As for `Cc1cc(C(=O)NN)c2cc(Br)ccc2n1`, the inhibition is -7.2% (inactive).

Turning to `CC/C(=N\NC(=O)CNC(=O)/C=C/c1ccco1)c1ccccc1`, the inhibition was -3.4% (inactive).

Turning to `CCOC(=O)c1cnc(-n2nc(C)cc2C)nc1N1CCOCC1`, the inhibition was 0.6% (inactive).

For the compound `O=C1CCSc2cccc3cccc(c23)N1`, the inhibition was 2.8% (inactive).

`CN(C)c1nc(N(C)C)nc(N(C#N)CCOc2ccccc2)n1`: the inhibition was -3.1% (inactive).

On to `CCOC(=O)c1ccc(NC(=O)Cn2nnc(-c3ccccc3)n2)cc1`, for which the inhibition is -10% (inactive).

For the compound `Cc1nc(NC(C)C)c2oc3ccccc3c2n1`, the inhibition is 18.8% (inactive).

As for `COC(=O)c1ccccc1NC(NC(=O)c1ccco1)C(=O)c1ccc(C)cc1` (centres undefined), the inhibition is -5.6% (inactive).

Turning to `Cc1ccccc1-c1cc(-c2ccccc2O)on1`, the inhibition was 25.2% (inactive).

`Cc1ccc(Nc2nc(CSc3nnnn3C)cs2)cc1`: the inhibition is -5.5% (inactive).

Turning to `COC1(c2ccccc2)NC(=S)NN=C1c1ccccc1` (centres undefined), the inhibition is -8.1% (inactive).

Take `Nc1ccccc1NC(=O)c1ccccc1N`: the inhibition is -3.2% (inactive).

Consider `COc1ccc(-c2nnc(SCC(=O)NC3CCCCC3)o2)cc1OC`, for which the inhibition is -4.1% (inactive).

As for `COc1cc(NC(=O)CN2C(=O)NC(C)(CC(C)C)C2=O)cc(OC)c1` (centres undefined), the inhibition is 11.6% (inactive).

Consider `CNC(=O)CN(c1ccc(OC)cc1)S(=O)(=O)c1ccc(F)cc1`, for which the inhibition was 6.8% (inactive).

Regarding `CCCc1nnc(SCC(=O)O)n1/N=C/c1ccc2c(c1)OCO2`, the inhibition was -2% (inactive).

On to `CSc1nc2sc(-c3ccccc3)cc2c(=O)n1N`, for which the inhibition was 8.1% (inactive).

As for `COc1ccc(CN2C(=O)[C@@H]3C(c4ccc(F)cc4)=NO[C@@H]3C2=O)cc1`, the inhibition is -6.1% (inactive).

For the compound `O=C(CSc1nc2ccccc2s1)NNC(=S)Nc1ccc(Br)cc1`, the inhibition is 1.8% (inactive).

Turning to `O=S(=O)(c1cccs1)N1CCN(CC(O)COc2cccc(Br)c2)CC1` (centres undefined), the inhibition is 4.8% (inactive).

On to `Cc1cc(C)n(-c2nc3ccccc3nc2N2CCN(C(=O)c3ccc(Cl)cc3)CC2)n1`, for which the inhibition was -5.2% (inactive).

As for `O=C1N2CCSC2=NC1(Nc1ccccn1)C(F)(F)F` (centres undefined), the inhibition is 5.4% (inactive).

For `O=C(c1ccc2snnc2c1)N1CCSCC1`, the inhibition is 8.5% (inactive).

For the compound `C=CCn1c(N2CCCC2)nc2c1c(=O)[nH]c(=O)n2C`, the inhibition was 7.9% (inactive).

With `CCOc1cc(S(=O)(=O)Nc2ccccc2CC)ccc1Cl`, the inhibition was -2.9% (inactive).

For `CCOC(=O)N1CCN(C(=O)c2ccc3c(c2)NC(=O)C(N2CCOCC2)S3)CC1` (centres undefined), the inhibition is 2.1% (inactive).

Consider `Cc1oc2cc3c(C(=O)N4CCCCC4)c(C)oc3cc2c1C(=O)N1CCCCC1`, for which the inhibition is 4.7% (inactive).

Regarding `O=c1c2ccccc2nnn1CSc1ncnc2ccccc12`, the inhibition was 15.2% (inactive).

Take `Cc1noc(C)c1S(=O)(=O)N1CCC2(CC1)OCCO2`: the inhibition was 7.1% (inactive).

Consider `Cn1nc(C(=O)OCC(=O)N2CCc3ccccc32)c2ccccc2c1=O`, for which the inhibition was 4.8% (inactive).

As to `O=C1CC(N2CCN(Cc3ccc4c(c3)OCO4)CC2)C(=O)N1Cc1ccc(N2CCCC2=O)cc1` (centres undefined), the inhibition is -5.2% (inactive).

As for `Cc1cc(C)cc(OCC(=O)Nc2nonc2NC(=O)COc2cc(C)cc(C)c2)c1`, the inhibition was 12.1% (inactive).

As for `COc1ccc(Cn2c(CCC(=O)O)nc3cccnc32)cc1`, the inhibition is 1.7% (inactive).

As for `N/C(Cc1cccs1)=N\OC(=O)COc1ccc(Br)cc1Cl`, the inhibition is 8.2% (inactive).

On to `CC1CCCN(c2nc3ccsc3c(=O)s2)C1` (centres undefined), for which the inhibition was -1.5% (inactive).

With `O=C(CS(=O)c1ccc(C(F)(F)F)cc1[N+](=O)[O-])Oc1ccccc1` (centres undefined), the inhibition was 56.9% (inactive).

With `Cc1ccc(F)cc1NC(=O)c1ccc2c(c1)OCO2`, the inhibition was -22.8% (inactive).

As to `N=c1nc(N)nc2n1NC(c1ccc(F)cc1)=CS2`, the inhibition was -1.2% (inactive).

Regarding `FC(F)(F)c1cc(-c2ccc3c(c2)OCO3)nc(NCc2ccco2)n1`, the inhibition was 16.2% (inactive).

As to `CC(C)C(=O)Nc1ccc(C(=O)NNC(=O)NC2CCCCC2)cc1`, the inhibition is -6.3% (inactive).

On to `CCCNS(=O)(=O)c1ccc2c(c1)CCCN2C(C)=O`, for which the inhibition was -18.5% (inactive).

Regarding `CC1(C)OC(=O)C(=NNc2ccc(O)cc2)C(=O)O1`, the inhibition is -6.2% (inactive).

With `Cc1ccn2c(NC(=O)c3ccco3)c(-c3ccccc3)nc2c1`, the inhibition is 3.4% (inactive).

`O=C(NC(NC1CCS(=O)(=O)C1)C(=O)c1cccs1)c1ccccc1` (centres undefined): the inhibition is 9.9% (inactive).

Regarding `CC(C)C(=O)N1CCN(c2nc(-c3ccccc3)c3c(c2C#N)CC(C)(C)OC3)CC1`, the inhibition was 5.1% (inactive).

Regarding `CCNCC(O)COCC(O)CNCC` (centres undefined), the inhibition was 1.3% (inactive).

Take `CC(=NCCCO)c1c(O)n(Cc2ccccc2)c(=O)[nH]c1=O`: the inhibition is -13.3% (inactive).

With `CCCOc1ccc(/C(O)=C2/C(=O)C(=O)N(CCOC)C2c2cccnc2)cc1` (centres undefined), the inhibition is 8.7% (inactive).

Take `O=C(N/N=C/c1ccc[nH]1)c1sc2ccccc2c1Cl`: the inhibition is 13.1% (inactive).

For the compound `CCc1nc2oc3ccccc3c(=O)c2c(=O)n1CCOC`, the inhibition is -0.1% (inactive).

For `Cc1ccc(C)c(NC(=S)NC(NC(=O)Cc2cccc3ccccc23)C(Cl)(Cl)Cl)c1` (centres undefined), the inhibition is 75.3% (inactive).

As for `Cc1cc(C)n(C(=O)c2ccc(NC(=O)C3COc4ccccc4O3)cc2)n1` (centres undefined), the inhibition was 3.2% (inactive).

Turning to `O=C(Cn1ncc2c(=O)oc3ccccc3c21)NCCC1=CCCCC1`, the inhibition is -1.9% (inactive).

For `O=C(Oc1csc(=S)n1C(=O)c1ccccc1)c1ccccc1`, the inhibition is 4% (inactive).

As to `COc1cccc(C(=O)COc2cccc(NC(=O)c3cccc([N+](=O)[O-])c3)c2)c1`, the inhibition was 1.6% (inactive).

With `Cc1ccc(-c2nn(C(C)(C)C)c3ncnc(N)c23)cc1`, the inhibition is -0.9% (inactive).

As for `CN1CCc2nc3sc(C#N)c(N)c3c(-c3cccs3)c2C1`, the inhibition is -13.9% (inactive).

As to `O=C(CC(c1ccccc1)c1ccccc1)NCC1CCCO1` (centres undefined), the inhibition was -7.2% (inactive).

Regarding `NC1=CC(=O)c2cccc3cccc1c23`, the inhibition is 6.1% (inactive).

Take `Cc1ccc(C(=O)CSc2nnc(COc3ccc(C#N)cc3)n2-c2ccccc2)cc1`: the inhibition was -0.7% (inactive).

For the compound `CC(C)(CO)NC(=O)CCCOc1ccc(Cl)cc1Cl`, the inhibition is -18.9% (inactive).

For `CCCCOCCCNC(=O)c1cccs1`, the inhibition was -15.4% (inactive).

On to `COc1ccccc1C(=O)Nc1ccc2c(c1)nc(CN1CCN(C(C)=O)CC1)n2C`, for which the inhibition was 0.2% (inactive).

For `CCCOC(=O)C1C2C=C[C@]3(CN(CCc4ccccc4)C(=O)[C@H]13)O2` (some centres undefined), the inhibition is 4.5% (inactive).

On to `N#CCc1nc2c3c4c(sc3ncn2n1)CCCC4`, for which the inhibition is 62.9% (inactive).

Take `O=C1CC(N2CCN(Cc3ccc4c(c3)OCO4)CC2)C(=O)N1c1ccccc1` (centres undefined): the inhibition was -11.2% (inactive).

For `CCOc1ccc(N2C(=O)CSC2c2ccncc2)cc1` (centres undefined), the inhibition is 0% (inactive).

With `O=C1Nc2ccc(S(=O)(=O)N3CCOCC3)c3cccc1c23`, the inhibition is -7.2% (inactive).

For `N#Cc1cc2c(nc1SCC(=O)N1CCCCC1)CCCC2`, the inhibition was -5.8% (inactive).

Take `CCNC(=O)CCn1nc(-c2ccc(Cl)cc2)c2ccccc2c1=O`: the inhibition was -0.3% (inactive).

Still in this assay, the particulars now being: TNFa-stimulated cells, VCAM1 expression imaging; cell count; at 10 µM; stronger effect = lower value.
As for `COc1cccc(CSc2nc3ccccc3cc2C=O)c1`, the cell count was 91.7%.

`Cc1nc([N+](=O)[O-])c(Br)n1CC(=O)c1ccc(Br)cc1` had a cell count of 116%.

`O=C(CS(=O)c1ccc(C(F)(F)F)cc1[N+](=O)[O-])Oc1ccccc1` (centres undefined) had a cell count of 109%.

`Cc1ccc(C)c(NC(=S)NC(NC(=O)Cc2cccc3ccccc23)C(Cl)(Cl)Cl)c1` (centres undefined) came in with a cell count of 99.3%.

As for `N#CCc1nc2c3c4c(sc3ncn2n1)CCCC4`, the cell count is 87.3%.
